Data: a melting point compilation (Tetko et al.; mined from patent text by program, amines drawn as free bases though some values may be those of a salt)

melting point	SMILES
116 to 117 °C	CC1(C)CC(=O)C(C(=O)Nc2cccc(C(F)(F)F)c2)C(=O)C1
85 to 87 °C	CCN1C=C(C(=O)OC)C(=O)CC1c1ccc(N(C)C)cc1 (centres undefined)
157 to 160 °C	Cn1cc(C(=O)NCc2ccc(Cl)cc2)c(=O)c2cc(CCCCO)oc21
212 to 213 °C	CC(=O)NCC1CN=C(c2cc3cccc(N(C)S(=O)(=O)c4cccs4)c3[nH]2)S1 (centres undefined)
95 to 100 °C	CC(C)(C)NC(=O)[C@@H]1C[C@H](F)CN1C(=O)[C@@H](O)[C@H](Cc1ccccc1)NC(=O)[C@H](CC(N)=O)NC(=O)OCc1ccccc1
162 °C	CN(C)C(=S)Oc1ccc(C(=O)c2ccc(C#N)cc2)cc1
172 to 175 °C	O=C(O)COc1ccc(C(=O)c2ccc([N+](=O)[O-])cc2)c(Cl)c1Cl
166 to 167 °C	O=C(O)CN(c1ccccc1)S(=O)(=O)c1ccccc1
62 to 64 °C	CC(C)(C)OC(=O)N1CCCN(c2ccc(C(C)(C)C)cc2)CC1
97 to 99 °C	Oc1cccc(NCCc2ccccc2)n1
85 to 87 °C	CC(=O)OC(c1ccc(OCc2ccccc2)cc1)C(F)(F)F (centres undefined)
133 to 142 °C	COC(=O)c1cccc(S(=O)(=O)N(C)C)c1CS(N)(=O)=O
173 to 174 °C	NC(=O)CCCCC1(c2ccccc2)CC(O)=CC(=O)O1 (centres undefined)
192 °C	CC(=O)NCCc1c(-c2ccccc2)oc2ccc3c(c12)OCCO3
222 to 224 °C	COc1ccc(C(=O)Nc2ccc(C(C)(C)CNC(=O)c3nc4ccc(F)cc4[nH]3)cc2)cc1OC
183 to 185 °C	COC(=O)COc1ccc(F)c2c1c1c(n2Cc2ccccc2)CCCC1C(N)=O (centres undefined)
119 to 121 °C	O=C(CCCCCNC(=O)C(=O)c1cn2c3c(cccc13)CCC2)NOCc1ccccc1
56.8 to 57.9 °C	Cc1cc(CO)cc([N+](=O)[O-])c1
183 to 184 °C	CC(=O)Nc1ccc(C23CC2C(=O)N(C)C3=O)cc1 (centres undefined)
294 to 295 °C	CC(=O)Nc1nc(/C=C/c2ccc([N+](=O)[O-])cc2)c(-c2ccc(S(C)(=O)=O)cc2)s1
105 to 108 °C	O=C(Nc1ccccc1)C1=C(C(F)(F)F)S(=O)(=O)CCS1(=O)=O
88 °C	CCOC(=O)c1ccc(NC(C)c2ccccc2)cc1 (centres undefined)

melting point	SMILES
153 to 155 °C	O=C(OCc1ccccc1)N1CCN(c2ccc(S(=O)(=O)N3CCCC3=O)cc2)CC1
84.5 to 86 °C	COc1ccc2c(c1)Oc1c(ccc(OC)c1C=O)C2(C)C
228 to 230 °C	Cc1cc(=O)[nH]c(=O)n1Cc1ccccc1
78 °C	COC(=O)c1csc(C)c1N
205 °C	CC(=O)Nc1ccc2c3c(cccc13)S(=O)(=O)N2CCCCl
108 to 109 °C	Nc1ccccc1C(=O)N1CCN(CCc2ccc(Cl)cc2)CC1
> 260 °C	O=C1CCC(N2C(=O)c3cccc(CNC(=O)Nc4ccccn4)c3C2=O)C(=O)N1 (centres undefined)
105 °C	CCOC(=O)Cc1csc(N=C2SC[C@@H]3Cc4ccccc4CN23)n1
78 to 80 °C	NCCCCCCCNC(=O)OCc1ccccc1
186 to 187 °C	COc1ccc(C(=O)O)cc1Oc1ccccc1
240 °C	Cc1cccc(NC(=O)NCC(=O)N(c2ccccc2)c2ccccc2)c1
228 to 230 °C	CCNC(=O)C(C)(C)c1ccc(C(=O)Nc2cn3cc(Cl)ccc3n2)cc1
149 to 153 °C	COc1cc(OC)nc(NC(=O)NS(=O)(=O)c2nc(C)cc3c2C(=O)OC3)n1
169 to 170 °C	CN(C)CCNC(=O)Cc1ccc(NC(=O)C2CCN(C(=O)OCc3ccccc3)CC2)cc1
126 to 127 °C	CCNc1nc(C#N)c(C#N)nc1-c1cccc(F)c1
146 to 148 °C	CC(C(=O)OC(C)(C)C)C(C)(O)c1ccc(Cl)nc1NC(=O)C(C)(C)C (centres undefined)
158 to 160 °C	CSC[C@H](C)NC(=O)c1c(OC(F)(F)F)cccc1C(=O)Nc1ccc(Cn2nc(C(F)(F)F)cc2C(F)(F)F)cc1C
135 °C	COc1cc2c(cc1OC)CN(CCCc1ccc(NC(=O)c3cccc4c(=O)c5cccc(OC)c5[nH]c34)cc1)CC2
93 to 94 °C	COC(=O)C(=O)c1ccc(OCCOc2ccc(OC)c(OC)c2)cc1
105 to 108 °C	COC(=O)CCc1cc2cc(Cl)ccc2n1S(=O)(=O)c1cccc(C)c1
140 to 142 °C	CS(=O)(=O)c1ccc(-c2cc(CO)sc2-c2ccc(F)cc2)cc1
162 to 163 °C	CC(=O)SCC(Cc1ccccc1)C(=O)Nc1cccc(C(=O)O)c1C (centres undefined)

The remaining lines, values behind:

SMILES	melting point
O=C(Nc1ccc(Cl)nc1)N1CCc2ccccc2CC1	170 to 172 °C
CN=C(NC#N)NCCCSCc1nsc(NC(=N)N)n1	117 to 120 °C
CCN(CC)C(=O)NC1CC2c3cccc4[nH]c(C(=O)OCc5ccccc5)c(c34)CC2N(C)C1 (centres undefined)	226 to 229 °C
O=C(NCc1ccc(OCCN2CCCC2)cc1)c1ccc2c(c1)OCO2	93.5 to 94.5 °C
CC(C)C(NC(=O)c1ccccc1)C(O)C(F)(F)F (centres undefined)	150 °C
CC1(COCCCCCCOc2ccc(C(=O)O)cc2)COC1	58.5 °C
Oc1ccc(-c2c3ccccc3cc3sc4ccccc4c23)cc1	112 to 116 °C
O=C(c1ccc([N+](=O)[O-])cc1)N1CCCCc2ncccc21	231 to 233 °C
O=C(Nc1cccc(-c2ccnc3c(C(=O)c4cccs4)cnn23)c1)c1cnccn1	222 to 224 °C
Cc1c(CO)c2ccc(OCCCN3CCN(Cc4ccc(Cl)cc4)CC3)cc2oc1=O	135 °C
CN1CCC(=C2c3ccccc3C=Cc3ccc(C#N)cc32)CC1	141 to 146 °C
CN1CCN(CCO)Cc2ccc(Nc3ncc(Cl)c(N[C@@H]4CCCC[C@H]4NS(C)(=O)=O)n3)cc21	181 to 190 °C
CCn1ncnc1COc1nc2c(-c3ccccc3)nnc(C)n2c1C1CCCC1	94 to 96 °C
COc1ccc(Sc2nc(-c3ccc(OC)cc3)cnc2N)cc1	149 to 151 °C
O=[N+]([O-])c1cccc(C=CC=Cc2ccccc2)c1	144 °C
CC(C)CCCC(C)CCOc1ccc2c(c1)[nH]c1ccccc12 (centres undefined)	188 °C
N#CCc1ccc(OCc2ccccc2)cc1OCc1ccccc1	99 to 100 °C
S=c1nc(-c2cc(Cl)cc(Cl)c2)[nH]n1Cc1ccccc1	205 to 212 °C
Nc1ncnc2c1ncn2COCCN1C(=O)c2ccccc2C1=O	256 to 258 °C
OCCCCc1ccc(OCc2ccccc2)cc1	59 to 60 °C

SMILES	melting point
O=C1CSC(c2cccnc2)N1 (centres undefined)	135 to 137 °C
Brc1ccc(CN2CCN(c3ccncc3)CC2)cc1	140 to 141 °C
CCCCCCCCc1ccc(C(=O)CBr)cc1	33 to 34 °C
OC(=S)c1c(F)cccc1-c1ccccc1	152 to 156 °C
Cc1c(/C=C/C(=O)c2ccc3ccccc3c2)ncn1C(c1ccccc1)(c1ccccc1)c1ccccc1	194 to 197 °C
CSc1cc(SC)c(SC)cc1SC	127 to 129 °C
CC(C)C=Cc1c(C(C)C)nc(C(C)C)c(CO)c1-c1ccc(F)cc1	112 °C
Cc1nc(C(=O)O)cnc1Cl	116 to 117 °C
O=C(O)[C@@H]1CC[C@H](n2nc(-c3c(-c4ccccc4)nn4ccccc34)ccc2=O)C(=O)C1 (relative stereo)	186 to 188 °C
O=C1CC(c2ccccc2)CC(=O)N1c1ccncc1	229 to 230 °C
N#CNC(=Nc1ccncc1)NCCCCOc1ccccc1	131 °C
CCCCN(CCCC)C(=O)CC1C(=O)N(c2ccc(Cl)cc2)C(=O)N1c1ccc(Cl)cc1 (centres undefined)	124 °C
CCCCCn1ncc2c(N)c3c(nc21)CCNC3=O	161 to 162 °C
CS(=O)c1ccc(-c2nc(=O)c3ccccc3s2)cn1 (centres undefined)	195 to 196 °C
COc1ccn2nc(-c3ccccc3)c(-c3ccc(=O)n(C(C)C)n3)c2c1Br	205 to 206 °C
Cn1nc2c(N)nc3c(c2c1CCCCNC(=O)N1CCOCC1)CCCC3	95 °C
CC(C)NC[C@H](O)COc1ccc(OCc2ccccc2)cc1	93 to 95 °C
O=C1C(Cc2ccccc2)SC(=S)N1c1nccs1 (centres undefined)	164 to 165 °C
O=C(Nc1ccc(Cl)cn1)c1cc(Cl)ccc1NCC1CCN(C2CCCCCC2)CC1	170 to 172 °C
O=CC(=Cc1ccccc1Br)C(C=O)=Cc1ccccc1Br	194 to 195 °C

SMILES	melting point
CCc1oc(C)cc(=O)c1O	157 to 159 °C
CN1CCCC(Cn2cc(-c3ccccc3)c(O)n2)C1 (centres undefined)	132 °C
O=S1(=O)c2sccc2C=C(CO)N1CCO	81 to 83 °C
CC1(C)C=C(c2ccccn2)c2cc(Cl)ccc2OC1	100 °C
Cc1cc(Oc2c(Cl)cc(C(F)(F)F)cc2Cl)nn1C(=O)NCCO	124 to 126 °C
Cc1nn(C)c(C)c1C(=O)NC1CCCCC1	185 to 186 °C
N#Cc1ccc(-c2cn3c(C(F)(F)F)cccc3n2)cc1	> 300 °C
CN(C)c1nc2sc3c(NCc4ccccn4)ncnc3c2c2c1COC(C)(C)C2	217 to 218 °C
CC(C)(C)c1cc(CC(S)C(=O)O)cc(C(C)(C)C)c1O (centres undefined)	137 to 140 °C
O=C(CCCCl)c1ccc2c(c1)Cc1cc(C(=O)CCCCl)ccc1-2	172 to 175 °C
O=C(CNC(=O)C1CCCCC1)c1ccccc1	114 to 115 °C
O=S1CCc2nc(N3CCN(c4ccccc4)CC3)nc(Nc3cccc(Cl)c3)c21 (centres undefined)	230 to 231 °C
O=CN1CCc2cc(O)ccc2C1	186 °C
O=c1[nH]cc(-c2cccnc2)nc1Cc1ccccc1	188 to 190 °C
O=[N+]([O-])c1cc(Cl)cnc1N1CCN(C/C=C/c2ccc(C(F)(F)F)cc2)CC1	129 to 132 °C
COc1cc2c(-c3cc4cccnc4[nH]3)cn(C)c2cc1OC(C)C	216 °C
Cc1oc2ccc(Nc3ncccc3N)cc2c1C	168 to 170 °C
Cc1nc2nc(Cl)c(Cl)nc2s1	58 to 60 °C
O=c1ccccn1C1c2cc(S(=O)c3ccccc3)ccc2OCCC1O (centres undefined)	181 to 184 °C
C#CCn1c(-c2ccccc2)nc(C=C)c(CC)c1=O	113 to 115 °C
